Values of other authors as cited in US10842882B2, “Amatoxin-antibody conjugates” ([…] GMBH, priority 2015, dated 2020).

Molecular target: RNA-polymerase II (Homo sapiens, UniProt P24928)
Conditions: amanitin/RNA-polymerase II complex, background statement

In the case of amanitin, the Kd is listed as 3 nM.
